EC50 data for five compounds are collected here from patent US11020395B2, “Cycloalkyl substituted triazole compounds as agonists of the APJ receptor” (AMGEN INC., priority 2016, dated 2021).

By EC50 is commonly meant the concentration needed to bring the measured effect to its halfway point.

Sequence of human APJ receptor (P35414 whole entry): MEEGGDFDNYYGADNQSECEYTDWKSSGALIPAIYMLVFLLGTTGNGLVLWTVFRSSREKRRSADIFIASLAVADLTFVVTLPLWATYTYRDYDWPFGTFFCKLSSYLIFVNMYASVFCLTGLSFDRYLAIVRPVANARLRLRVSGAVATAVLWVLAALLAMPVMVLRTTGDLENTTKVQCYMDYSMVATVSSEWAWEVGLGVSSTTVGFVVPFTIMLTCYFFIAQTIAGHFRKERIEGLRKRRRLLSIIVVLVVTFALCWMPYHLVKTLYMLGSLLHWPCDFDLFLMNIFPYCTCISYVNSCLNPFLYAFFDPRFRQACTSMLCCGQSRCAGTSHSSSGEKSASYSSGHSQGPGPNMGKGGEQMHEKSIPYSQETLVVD

This assay deals with human APJ receptor (Homo sapiens (Human), UniProt P35414). In words: [35S]GTPγS binding assay on membranes from CHO cells stably expressing human APJ receptor. Type of assay: biochemical. The note with it: [35S]GTPγS SPA, read-out: Activity hAPJ SPA EC50 IP. As to the method:
[^35S]GTPγS Binding The human APJ receptor was cloned by polymerase chain reaction and the gene encoding the receptor was subcloned in pFLAG-CMV™-3 expression vector (Sigma, Saint Louis, Mo. USA) in-house at Amgen. A GTPγS binding assay was performed on membranes prepared from CHO cells stably expressing human APJ receptor. The optimum experimental conditions for the concentrations of GDP, MgCl2, and NaCl in the assay buffer were initially determined. […] Incubation was at RT for 90 min and the microplate was read using a ViewLux™ ultra HTS Microplate Imager (PerkinElmer, Inc.). All the results presented are means of several independent experiments and analyzed by non-linear regression methods using the commercially available program Prism (GraphPad, San Diego, Calif.) providing the EC50 values detailed in Table 25.
With `CO[C@H](c1ncc(Cl)cn1)[C@H](C)S(=O)(=O)Nc1nnc([C@H]2C[C@H](CO)C2)n1C(C)C` (single isomer, unassigned) [Example 137.0, (1R,2S)-1-(5-chloro-2-pyrimidinyl)-N-(5-(trans-3-(hydroxymethyl)cyclobutyl)-4-(2-propanyl)-4H-1,2,4-triazol-3-yl)-1-methoxy-2-propanesulfonamide or (1R,2S)-1-(5-chloro-2-pyrimidinyl)-N-(5-(cis-3-(hydroxymethyl)cyclobutyl)-4-(2-propanyl)-4H-1,2,4-triazol-3-yl)-1-methoxy-2-propanesulfonamide], the EC50 was found to be 340 nM.

For `COc1ncnc(OC)c1-n1c(NS(=O)(=O)[C@@H](C)[C@H](OC)c2ncc(Cl)cn2)nnc1[C@H]1CC[C@@H](C(F)F)CC1` (single isomer, unassigned) [Example 144.0, (1R,2S)-1-(5-chloro-2-pyrimidinyl)-N-(5-(cis-4-(difluoromethyl)cyclohexyl)-4-(4,6-dimethoxy-5-pyrimidinyl)-4H-1,2,4-triazol-3-yl)-1-methoxy-2-propanesulfonamide or (1R,2S)-1-(5-chloro-2-pyrimidinyl)-N-(5-(trans-4-(difluoromethyl)cyclohexyl)-4-(4,6-dimethoxy-5-pyrimidinyl)-4H-1,2,4-triazol-3-yl)-1-methoxy-2-propanesulfonamide], the concentration for a half-maximal effect (EC50) came to 620 nM.

As for `COc1ncnc(OC)c1-n1c(NS(=O)(=O)[C@@H](C)[C@H](OC)c2ncc(Cl)cn2)nnc1[C@H]1CC[C@@H](C(F)F)CC1` (single isomer, unassigned) [Example 145.0, (1R,2S)-1-(5-chloro-2-pyrimidinyl)-N-(5-(cis-4-(difluoromethyl)cyclohexyl)-4-(4,6-dimethoxy-5-pyrimidinyl)-4H-1,2,4-triazol-3-yl)-1-methoxy-2-propanesulfonamide or (1R,2S)-1-(5-chloro-2-pyrimidinyl)-N-(5-(trans-4-(difluoromethyl)cyclohexyl)-4-(4,6-dimethoxy-5-pyrimidinyl)-4H-1,2,4-triazol-3-yl)-1-methoxy-2-propanesulfonamide], the EC50 was determined as 4.8 nM.

`COc1cccc(OC)c1-n1c(NS(=O)(=O)[C@@H](C)[C@H](OC)c2ncc(Cl)cn2)nnc1[C@H]1C[C@H](C(F)(F)F)C1` (single isomer, unassigned) [Example 149.0, (1R,2S)-1-(5-chloropyrimidin-2-yl)-N-(4-(2,6-dimethoxyphenyl)-5-((1r,3S)-3-(trifluoromethyl)cyclobutyl)-4H-1,2,4-triazol-3-yl)-1-methoxypropane-2-sulfonamide or (1R,2S)-1-(5-chloropyrimidin-2-yl)-N-(4-(2,6-dimethoxyphenyl)-5-((1s,3R)-3-(trifluoromethyl)cyclobutyl)-4H-1,2,4-triazol-3-yl)-1-methoxypropane-2-sulfonamide]: the EC50 came out at 4.2 nM.

For `COc1cccc(OC)c1-n1c(NS(=O)(=O)[C@@H](C)[C@H](OC)c2ncc(Cl)cn2)nnc1[C@H]1C[C@H](C(F)(F)F)C1` (single isomer, unassigned) [Example 150.0, (1R,2S)-1-(5-chloropyrimidin-2-yl)-N-(4-(2,6-dimethoxyphenyl)-5-((1r,3S)-3-(trifluoromethyl)cyclobutyl)-4H-1,2,4-triazol-3-yl)-1-methoxypropane-2-sulfonamide or (1R,2S)-1-(5-chloropyrimidin-2-yl)-N-(4-(2,6-dimethoxyphenyl)-5-((1s,3R)-3-(trifluoromethyl)cyclobutyl)-4H-1,2,4-triazol-3-yl)-1-methoxypropane-2-sulfonamide], the EC50 was found to be 6.8 nM.
